Experimental data as given in US5310667A (priority 1989, dated 1994).
Values after ≈ are worked out from the molar mass of the structure shown. “Also recorded” adds a separate entry of the source.

Assays:
[1] = molecular target: T1, variant petunia EPSP synthase with glycine (101) to alanine and glycine (144) to asparagine substitutions (Petunia hybrida, UniProt P11043, G173A/G216N); test: EPSP synthase kinetic constants (Ki glyphosate, Km PEP); assay type: biochemical
T1 construct: GGT codon for glycine (144) in the mature petunia EPSP synthase
Method: Kinetic constants (appKm PEP and appKi glyphosate) were determined for EPSP synthase as described below. Substrate kinetic parameters were determined at pH 7.0 in 50 mM HEPES (N-[2-hydroxyethyl]piperazine-N'-[2-ethanesulfonic acid]) buffer in the presence of 2 mM S3P and varying amounts of ^14 C-PEP (10 μM-400 μM), for 2.0 minutes at 25° C. Reactions were quenched with 100 mM Na Acetate in ethanol, pH 4.5, centrifuged and analyzed for product EPSP formation by HPLC with flow radioactivity detection. HPLC conditions were 0.35 MKPi, pH 6.5, on a Synchropak AX100 column at 1.0 ml/min.

[2] = tested on: bacteria harboring pMON342 or pMON9566 (double pL promoter, petunia EPSP synthase); test: Glyphosate tolerance of bacteria in growth media; assay type: cell-based, E. coli; settings: very high expression of the enzyme
Method: The double pL promoter used to express the petunia EPSP synthase in pMON342 and pMON9566 leads to a very high level of expression of the enzyme. The enzyme is present at such high concentration that bacteria harboring either of these plasmids are tolerant to very high levels of glyphosate ([…]) in growth media, even though the enzyme produced by pMON342 is the wild type form. […] A plasmid for identifying such a promoter was constructed as follows: pMON9544, the precursor to pMON342, was digested with BamHI to remove the pL promoters, and was recircularized by ligation resulting in pMON362. The EcoRI fragment of pMON9556 containing the 3'-cDNA portion of the petunia EPSPS cDNA was then inserted into the EcoRI site of this plasmid reconstituting the entire coding sequence. The resulting plasmid, pMON364 is identical to pMON342 except that there is no promoter 5' of the EPSP synthase coding sequence.

[3] = tested on: E. coli SR481 (aroA-) carrying pMON8152; test: Growth on minimal medium containing glyphosate; assay type: cell-based
Method: The heterologous expression system was tested with a known variant to see if glyphosate resistant variants of petunia EPSPS could be selected. […] That was achieved by replacing the 660 bp EcoRI-HindIII region from both vectors with the 660 bp EcoRI-HindIII region from pMON9566 which contained the glycine (101) to alanine mutation.

E. coli strain JM101 = test: Growth on minimal medium plates with increasing glyphosate; assay type: cell-based; settings: Escherichia coli, read-out: glyphosate concentration that inhibits endogenous EPSP synthase activity and growth on minimal media
Source text: A multi-step screening procedure was used to identify glyphosate resistant variants of petunia EPSPS.

[4] = tested on: control petunia plants (wildtype or control vector pMON505); test: Plant response to glyphosate spraying; assay type: in vivo; settings: 0.8 #/acre acid equivalent, isopropylamine salt, sprayed
Method: (§1) Four individual representative transgenic seedlings were selected, grown and tested in the testing procedure described below, along with four individual non-transformed (wild-type) petunia seedlings.
(§2) The plants were grown in a growth medium in a growth chamber at 26° C. with 12 hours of light per day. The plants were fertilized weekly with a soluble fertilizer and watered as needed. The plants were sprayed at a uniform and reproducible delivery rate of herbicide by use of an automated track sprayer. The glyphosate solution used was measured as pounds of glyphosate acid equivalents per acre, mixed as the glyphosate isopropylamine salt, with an ionic surfactant.
(§3) Four individual wild-type (non-transformed) petunia plants were selected for use as control plants. Four individual transformed plants containing the pMON546 vector were selected by kanamycin resistance as described by Horsch, et al. (1985).
(§4) The control plants and the transformed plants were sprayed with the isopropylamine salt of glyphosate at the application level listed in Table 2 below; the experimental results obtained are also summarized in Table 2.

[5] = tested on: transformed petunia plants containing pMON546 (Chimeric EPSP); test: Plant response to glyphosate spraying; assay type: in vivo; settings: 0.8 #/acre acid equivalent, isopropylamine salt, sprayed
Method: as §1, §2, §3, §4

[6] = tested on: tobacco plants transformed with wild-type EPSP synthase gene; test: Relative effect of glyphosate spraying on transformed tobacco; assay type: in vivo, Nicotiana tobacam CV H425; settings: WT, 0 total kill, 10 no effect, best transformant
Source text: A culture of A. tumefaciens cells containing pMON567/pGV3111-SE was contacted with leaf disks taken from tobacco plants (Nicotiana tobacam CV H425) as described by Horsch (1985). The Agrobacterium cells inserted the variant EPSP synthase gene into the chromosomes of the plant cells. Plant cells resistant to kanamycin were selected and regenerated into differentiated plants by the procedure of Horsch (1985).
Progeny of these plants were propagated and grown to a rosette diameter of about 10 cm corresponding to a plant age of about four weeks. The plants were sprayed with glyphosate at levels corresponding to 0.4, 2.0 and 3.6 pounds acid equiv./acre. The effect of glyphosate on the transformed plants were scored at 7, 14 and 28 days. The effect was translated to a numerical scale of 0-10 in which 0 represents total kill and 10 is the normal, unsprayed plant. […] The values represent the best transformant for both wild-type EPSP synthase and glyphosate-tolerant EPSP synthase genes.

[7] = molecular target: petunia EPSP synthase with alanine for the first glycine of the conserved region (Petunia hybrida, UniProt P11043, G170A); test: Glyphosate sensitivity of EPSP synthase variant; assay type: biochemical; settings: relative to wild type
petunia EPSP synthase with alanine for the first glycine of the conserved region, sequence (P11043 73-516 G170A): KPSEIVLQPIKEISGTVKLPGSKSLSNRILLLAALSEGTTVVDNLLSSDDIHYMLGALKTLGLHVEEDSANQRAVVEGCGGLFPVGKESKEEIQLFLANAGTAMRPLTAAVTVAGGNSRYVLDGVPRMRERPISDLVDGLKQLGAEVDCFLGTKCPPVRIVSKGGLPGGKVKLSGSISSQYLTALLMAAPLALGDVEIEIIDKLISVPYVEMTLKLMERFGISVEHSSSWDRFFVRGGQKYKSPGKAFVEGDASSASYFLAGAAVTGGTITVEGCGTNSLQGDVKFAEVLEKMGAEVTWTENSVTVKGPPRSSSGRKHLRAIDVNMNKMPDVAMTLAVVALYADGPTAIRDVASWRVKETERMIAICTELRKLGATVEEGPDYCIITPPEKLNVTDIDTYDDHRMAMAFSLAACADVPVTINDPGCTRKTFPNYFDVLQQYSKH

T1 sequence (P11043 73-516 G173A/G216N): as the sequence (P11043 73-516 G170A) above, with A98G, G101A, G144N counted along it

O=C(O)CNCP(=O)(O)O [glyphosate, N-phosphonomethylglycine]
Ki for glyphosate [1]: 960 µM | Ki/Km ([1]; Ki glyphosate / Km PEP): 10.5 | level of glyphosate tolerated in growth media [2]: > 50 µM | glyphosate concentration up to which growth on minimal medium is supported [3]: up to 50 mM | MIC (E. coli strain JM101): 2000 µM (≈ 338 µg/mL) | Visual Appearance [4]: completely dead; also recorded: killed | Visual Appearance [5]: growing well; also recorded: healthy and viable | Relative Effect of Glyphosate ([6]; 0.4 pounds/Acre, day 7): 6.0 | Relative Effect of Glyphosate ([6]; 0.4 pounds/Acre, day 14): 7.0 | Relative Effect of Glyphosate ([6]; 0.4 pounds/Acre, day 28): 9.0 | Relative Effect of Glyphosate ([6]; 2.0 pounds/Acre, day 7): 5.0 | Relative Effect of Glyphosate ([6]; 2.0 pounds/Acre, day 14): 1.8 | Relative Effect of Glyphosate ([6]; 2.0 pounds/Acre, day 28): 0.8 | Relative Effect of Glyphosate ([6]; 3.6 pounds/Acre, day 7): 5.0 | Relative Effect of Glyphosate ([6]; 3.6 pounds/Acre, day 14): 1.7 | Relative Effect of Glyphosate ([6]; 3.6 pounds/Acre, day 28): 0.8 | change in glyphosate sensitivity [7]: no attendant changes in glyphosate sensitivity
